Where two headings read alike, the source gives them in different places. Blank lines part the entries; values can stand above or below the compound they belong to. Where a SMILES comes first, the peptide text is derived from it. [ ]: non-standard residue; d: D form. The star is where a group is joined. Dolaproine = CO[C@@H]([C@@H]1CCCN1)[C@@H](C)C(=O)O; Dil = CC[C@H](C)[C@H](NC)[C@@H](CC(=O)O)OC; X1 = C[C@@H](N*)[C@@H](O)c1ccccc1; NMeV = CN[C@H](C(=O)O)C(C)C
How the values were obtained:
[1] = test system: BXPC-3; assay: Cell viability assay (CCK-8); assay type: cell-based; settings: free payloads, CCK-8, 96 hours, cell 'BKFC-Y' [sic], Pancreas, read-out: IC50 (95% Cl)
Procedure: (§1) Cell viability was determined using Cell Counting Kit 8 (CCK-8). Cells were seeded into 96-well plates at 3000-10000 cells/well. After incubation overnight, drugs were added at different concentrations. Plates were incubated in a 5% CO2, 37° C. humidified chamber for 96 hours. CCK8 reagent was added thereto and the plates were placed back to the incubator until the absorbance at 450 nm of untreated control cells was greater than 1.0. Growth inhibition was measured as the percent growth relative to untreated cells. Dose response curve was generated from the mean values of two or three tests, and IC50 values were calculated using Prism GraphPad software.
(§2) The anti-tumor efficacy of different payloads on different tumor cell lines was detected by CCK-8, and the results are shown in FIG. 5.

[2] = test system: SCLC-21H; assay: Cell viability assay (CCK-8); assay type: cell-based; settings: free payloads, CCK-8, 96 hours, cell 'ECLC 214' [sic], Small cell lung, read-out: IC50 (95% Cl)
Procedure: as §1, §2

[3] = test system: COLO205; assay: Cell viability assay (CCK-8); assay type: cell-based; settings: free payloads, CCK-8, 96 hours, cell 'CCAO205' [sic], Colen, read-out: IC50 (95% Cl)
Procedure: as §1, §2

[4] = test system: HCC1806; assay: Cell viability assay (CCK-8); assay type: cell-based; settings: free payloads, CCK-8, 96 hours, 'HCCHOI' [sic], Mamary, read-out: IC50 (95% Cl)
Procedure: as §1, §2

[5] = test system: SK-MES-1; assay: Cell viability assay (CCK-8); assay type: cell-based; settings: free payloads, CCK-8, 96 hours, cell 'SK-M55-1' [sic], Lung, read-out: IC50 (95% Cl)
Procedure: as §1, §2

[6] = test system: Capan-1; assay: Cell viability assay (CCK-8); assay type: cell-based; settings: free payloads, CCK-8, 96 hours, cell 'Cepes-3' [sic], Pancreas, read-out: IC50 (95% Cl)
Procedure: as §1, §2

[7] = test system: MDA-MB-231; assay: Cell viability assay (CCK-8); assay type: cell-based; settings: free payloads, CCK-8, 96 hours, 'MCP-83-21' [sic], Mamary, read-out: IC50 (95% Cl)
Procedure: as §1, §2

[8] = test system: HT29; assay: Cell viability assay (CCK-8); assay type: cell-based; settings: free payloads, CCK-8, 96 hours, cell 'H123' [sic], Colon, read-out: IC50 (95% Cl)
Procedure: as §1, §2

[9] = test system: CFPAC-1; assay: Cell viability assay (CCK-8); assay type: cell-based; settings: free payloads, CCK-8, 96 hours, cell CFPAC-1, Pancreas, read-out: IC50 (95% Cl)
Procedure: as §1, §2

[10] = test system: MDA-MB-468; assay: Cell viability assay (CCK-8); assay type: cell-based; settings: free payloads, CCK-8, 96 hours, cell printed 'MOA-413-468', Mamary, read-out: IC50 (95% Cl)
Procedure: as §1, §2

[11] = test system: SKBR3; assay: Cell viability assay (CCK-8); assay type: cell-based; settings: free payloads, CCK-8, 96 hours, cell 'SK8RS' [sic], Mamary, read-out: IC50 (95% Cl)
Procedure: as §1, §2

[12] = test system: NCI-H1688; assay: Cell viability assay (CCK-8); assay type: cell-based; settings: free payloads, CCK-8, 96 hours, cell 'NCl-H1828' [sic], Lung, read-out: IC50 (95% Cl)
Procedure: as §1, §2

[13] = test system: tumor cell lines with different expression levels of Trop-2; assay: Cell viability assay (CCK-8), comparison across the cell panel; assay type: cell-based; settings: tumor cell lines with different expression levels of Trop-2
Procedure: as §1, §2

[14] = Adverse effects and weight loss of mice treated in the efficacy models; assay type: in vivo, BALB/c nu/nu mice; settings: hRS7-VK-MMAE 3 mg/kg; hRS7-VK-SN38 3 or 10 mg/kg; PTX alone
Description: Five-week-old female athymic BALB/c nu/nu mice were purchased from Charles River Company (Shanghai, China), and mice were randomly divided into 5-6 mice/group. Animal handling and procedures were approved and performed in accordance with the requirements of the Institutional Animal Care and Use Committee (IACUC) of Shanghai Institute of Materia Medica, Chinese Academy of Sciences. All models were inoculated subcutaneously on the side of mice. BXPC-3, HCC1806 and NCIH1688 cells were established by injecting and homogenizing 5 × 10^6 cells in Matrigel matrix. COLO205 cells were established by injecting and suspending 1 × 10^7 cells in Matrigel matrix. After the tumor volume reached about 200 mm^3, the tumor-bearing mice were randomly divided into treatment groups and a control group according to the tumor volume. Each drug was administered intraperitoneally. Mice were injected at doses of 3 or 10 mg/kg (10 mL/kg). Tumor volume was defined as length × ½ × width × width. The percentage of inhibition was calculated by the following formula: (1-average tumor volume of the treatment group/average tumor volume of the control group)×100%. Toxicity of the different treatment groups was assessed by monitoring weight loss.

Compound: CC[C@H](C)[C@@H]([C@@H](CC(=O)N1CCC[C@H]1[C@H](OC)[C@@H](C)C(=O)N[C@H](C)[C@@H](O)c1ccccc1)OC)N(C)C(=O)[C@@H](NC(=O)[C@@H](NC)C(C)C)C(C)C [MMAE] (H-[NMeV]V[Dil][Dolaproine]-X1)
- IC50 [1]: 0.263 nM
- IC50 [2]: 0.0131 nM
- IC50 [3]: 0.155 nM
- IC50 [4]: 0.0177 nM
- IC50 [5]: 0.225 nM
- IC50 [6]: 0.366 nM
- IC50 [7]: > 300 nM
- IC50 [8]: ~3.05 nM
- IC50 [9]: > 300 nM
- IC50 [10]: ~0.141 nM
- IC50 [11]: 0.0327 nM
- IC50 [12]: 1.74 nM

- IC50 ([1]; Homo sapiens, BXPC-3): 0.468 nM
- IC50 ([3]; Homo sapiens, COLO 205): > 300 nM
- IC50 ([4]; Homo sapiens, HCC1806): 2.46 nM
- IC50 ([5]; Homo sapiens, SK-MES-1): 53.1 nM
- IC50 ([7]; Homo sapiens, MDA-MB-231): > 300 nM
- IC50 ([8]; Homo sapiens, HT-29): > 300 nM
- IC50 ([10]; Homo sapiens, MDA-MB-468): 7.22 nM
- IC50 ([11]; Homo sapiens, SK-BR-3): ~852 nM
- IC50 ([12]; NCI-H1688): 37.3 nM
Compound: CC(=O)O[C@H]1C(=O)[C@@]2(C)[C@H]([C@H](OC(=O)c3ccccc3)[C@]3(O)C[C@H](OC(=O)[C@H](O)[C@@H](NC(=O)c4ccccc4)c4ccccc4)C(C)=C1C3(C)C)[C@]1(OC(C)=O)CO[C@@H]1C[C@@H]2O [PTX, Paclitaxel]
- cytotoxicity of individual payload molecules [13]: weaker than that of MMAE, but close to that of SN38
- adverse effects or weight loss in treated mice, relative to hRS7-VK-PTX (none) [14]: stark contrast
- IC50 ([2]; Homo sapiens, SCLC-21H): ~32 nM
- IC50 ([6]; Homo sapiens, CAPAN-1): 7.43 nM
- IC50 ([9]; Homo sapiens): > 300 nM
